This note sets out measurements from ChEMBL document CHEMBL1201862, “PubChem BioAssay data set” (2004).

Molecules are shown by their SMILES.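 96-well plates; 48 h exposure; 5 concentrations. Endpoints by linear interpolation between flanking doses. Not reached: highest tested concentration assigned. GI50 = concentration required for 50% inhibition of growth.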 The source made the active and inactive calls. Cut-off read from the data, not from the text of the source: active = GI50 up to about 1.1 µM and inactive = higher. Bounds are passed on as bounds.

Holding throughout (test): DTP human tumour cell line panel, 48 h
Test [1] has as its system A498.
Test [2] deals with LOX IMVI.
Test [3] relates to RXF 393.
Test [4] has as its system IGROV-1.
The test system of test [5] is OVCAR-4.
In test [6] the test system is CCRF-CEM.
Test [7] concerns M14.
In test [8] the test system is SK-MEL-5.
Test [9] concerns HCT-116.
The test system of test [10] is ACHN.
Test [11] relates to OVCAR-3.
For test [12], the system named is NCI-H226.
Test [13] has as its system UO-31.
The test system of test [14] is MOLT-4.
In test [15] the test system is NCI/ADR-RES.
The subject of test [16] is HCC 2998.
Test [17] concerns HT-29.
Test [18] relates to SK-MEL-2.
Test [19] has as its system MDA-N.
Test [20] concerns SNB-19.

For `CCCCCCCCCc1cccc(N2C(N)=NC(N)=NC2(C)C)c1`, the GI50 in test [1] is 1.24 µM (inactive); in test [2], < 0.01 µM (active); in test [3], 1.95 µM (inactive); in [4], < 0.01 µM (active); in test [5], < 0.01 µM (active); in test [6], 0.197 µM (active). Also, the GI50 in test [7] was < 0.01 µM (active); in test [8], 0.0277 µM (active); in test [9], < 0.01 µM (active); in test [10], < 0.0158 µM (active); in [11], 0.0547 µM (active); in test [12] it was 1.26 µM (inactive). Moreover, the GI50 was 1.93 µM (inactive) in test [13]; < 0.0273 µM (active) in test [14]; 4.62 µM (inactive) in [15]; < 0.01 µM (active) in test [16]; < 0.01 µM (active) in [17]; 0.993 µM (active) in test [18].
With `Cc1c(-c2ccccc2)[nH]c2ccc(Cl)cc2c1=O`, the GI50 in test [19] was 17.4 µM (inactive); in [2], 27.9 µM (inactive); in test [3] it was 20 µM (inactive); in test [4], 33.9 µM (inactive); in [5] it was 21.8 µM (inactive); in test [6], 55.8 µM (inactive). In addition, the GI50 in test [20] is > 100 µM (inactive); in test [7], 34.7 µM (inactive); in test [8], 13.3 µM (inactive); in test [9], 17.6 µM (inactive); in test [10], 29 µM (inactive); in test [11], 17.1 µM (inactive). Further, the GI50 in test [12] is 30.4 µM (inactive); in test [13] it was 0.252 µM (active); in [14] it was 22 µM (inactive); in test [15] it was 29.5 µM (inactive); in test [16], 23.2 µM (inactive); in [17], 40.8 µM (inactive). Also, the GI50 in [18] is 18 µM (inactive).
Regarding `Cc1cc([C@H](C#N)c2nc3ccccc3[nH]2)nc(Cl)n1`, the GI50 is 41.8 µM (inactive) in test [1]; 38.8 µM (inactive) in test [2]; 33.3 µM (inactive) in [3]; 54.5 µM (inactive) in test [4]; 40.4 µM (inactive) in test [5]; 30.8 µM (inactive) in test [6]. In addition, the GI50 was 71.6 µM (inactive) in test [20]; 13.7 µM (inactive) in [8]; 37.8 µM (inactive) in test [9]; 38.2 µM (inactive) in test [10]; 48 µM (inactive) in test [12]; 35.6 µM (inactive) in [13]. Besides, the GI50 in test [14] was > 100 µM (inactive); in test [15], 30.1 µM (inactive); in test [16], 20.3 µM (inactive); in test [17] it was 41.7 µM (inactive); in test [18], 26.5 µM (inactive).
Take `CC(ON(C(c1ccccc1)C(C)C)C(C)(C)C)c1ccccc1` (centres undefined): the GI50 in [19] was 25.8 µM (inactive); in test [2] it was 18.4 µM (inactive); in test [3] it was 16.3 µM (inactive); in test [4] it was 23.1 µM (inactive); in test [5] it was 27 µM (inactive); in test [6] it was 19.1 µM (inactive). Moreover, the GI50 in test [20] is 18.5 µM (inactive); in [7] it was 22.7 µM (inactive); in test [8], 14.4 µM (inactive); in test [9], 14.7 µM (inactive); in test [10], 15.8 µM (inactive); in test [11] it was 16.4 µM (inactive). The GI50 in [12] is 19 µM (inactive); in test [13], 24.5 µM (inactive); in [14], 15 µM (inactive); in [15] it was 23.1 µM (inactive); in test [16], 17.3 µM (inactive); in [17], 18.9 µM (inactive). Further, in test [18], the GI50 was 18.4 µM (inactive).
As for `CC(=O)OCc1cc2c(s1)C(=O)c1sccc1C2=O`, the GI50 is 1.82 µM (inactive) in test [1]; < 0.0182 µM (active) in test [2]; 0.157 µM (active) in test [3]; 1.46 µM (inactive) in [4]; 0.191 µM (active) in test [5]; 0.383 µM (active) in test [6]. For the same compound, the GI50 in test [20] is 0.177 µM (active); in [7] it was < 0.0139 µM (active); in [8] it was 0.0426 µM (active); in [9], 1.74 µM (inactive); in test [10] it was 0.0881 µM (active); in [11] it was 0.223 µM (active). In addition, the GI50 in test [12] is 0.355 µM (active); in test [13] it was 0.178 µM (active); in [14] it was 0.356 µM (active); in test [15] it was 0.2 µM (active); in test [16] it was 1.78 µM (inactive); in test [17], 0.65 µM (active). Moreover, the GI50 in test [18] was 0.0935 µM (active).
Regarding `Cc1ccc(/C=C2\Cc3cc(C)c(C)cc3C2=O)c(C(=O)O)c1`, the GI50 in [1] is 22.8 µM (inactive); in test [19] it was 29.6 µM (inactive); in test [2], 31 µM (inactive); in [3] it was 28.2 µM (inactive); in test [4], 37.8 µM (inactive); in test [6] it was 27 µM (inactive). In addition, the GI50 in test [20] was 30.9 µM (inactive); in test [8], 29.1 µM (inactive); in [9], 32.1 µM (inactive); in test [10], 46.3 µM (inactive); in [11], 37.9 µM (inactive); in test [12], 19.3 µM (inactive). Also, the GI50 in test [13] is 29 µM (inactive); in [14], 34.3 µM (inactive); in test [16] it was 26.1 µM (inactive); in test [17], 33.3 µM (inactive); in test [18], 45.6 µM (inactive).
As for `N#Cc1cc2c(cc1Cl)Sc1nnc(Nc3ccccc3)n1S2(=O)=O`, the GI50 in test [1] is 8.32 µM (inactive); in test [2] it was 1.73 µM (inactive); in test [3], 1.73 µM (inactive); in test [4], 2.2 µM (inactive); in [5], 2.68 µM (inactive); in [6], 1.56 µM (inactive). Further, the GI50 in [20] was 2.3 µM (inactive); in [7] it was 2.17 µM (inactive); in test [8] it was 2.43 µM (inactive); in test [9], 2.04 µM (inactive); in [10], 1.74 µM (inactive); in test [11] it was 1.64 µM (inactive). Besides, the GI50 was 2.24 µM (inactive) in [12]; 1.78 µM (inactive) in test [13]; 2.02 µM (inactive) in [14]; 1.78 µM (inactive) in test [15]; 1.55 µM (inactive) in test [16]; 2.12 µM (inactive) in test [17]. For the same compound, the GI50 in test [18] was 2.55 µM (inactive).
In the case of `N=C(c1ccc(-c2cn3cc(C(=N)N4CCCC4)ccc3n2)cc1)N1CCCC1`, the GI50 was > 100 µM (inactive) in [19]; > 100 µM (inactive) in test [2]; > 100 µM (inactive) in test [3]; > 100 µM (inactive) in test [4]; > 100 µM (inactive) in test [5]; 20.8 µM (inactive) in test [6]. In addition, the GI50 in test [20], in test [7], in test [8], in test [9], in [10] and in test [11] was > 100 µM (inactive) throughout. Moreover, the GI50 in test [12], in test [13], in test [14], in test [15], in test [17] and in test [18] was > 100 µM (inactive) in each case.
For `CCN(CC)c1nc(N(C)C)c2ccc(OC)cc2n1`, the GI50 in [19] was 8.49 µM (inactive); in test [2], 17.1 µM (inactive); in test [3], 13.6 µM (inactive); in test [4], 23.2 µM (inactive); in test [5], 25.8 µM (inactive); in test [20], 20 µM (inactive). The GI50 in test [7] was 8.75 µM (inactive); in [8] it was 11.6 µM (inactive); in [9], 4.35 µM (inactive); in [10], 12.5 µM (inactive); in test [12] it was 14.2 µM (inactive); in test [14], 3.49 µM (inactive). In addition, the GI50 is 11.9 µM (inactive) in [15], 11.6 µM (inactive) in test [16], 4.12 µM (inactive) in test [17] and 15.9 µM (inactive) in test [18].
For `O=C1NC(N2CCOCC2)=N/C1=C\c1ccccc1`, the GI50 in test [19], in [2], in test [4], in test [5], in test [6] and in test [20] was > 100 µM (inactive) each time. Further, the GI50 in [7], in test [8], in test [9], in test [10], in [11] and in test [12] was > 100 µM (inactive) throughout. Also, the GI50 in [13], in [14], in test [15], in test [16], in [17] and in test [18] was > 100 µM (inactive) each time.
For the compound `CNCCCn1c2ccccc2c2c3c(c(-c4ccsc4)cc21)C(=O)NC3=O`, the 50% growth inhibitory concentration (GI50) in test [1] was < 0.0104 µM (active); in test [2], 1.33 µM (inactive); in test [3], 0.0112 µM (active); in test [4], 1.09 µM (active); in test [5], 1.59 µM (inactive); in test [6] it was 0.216 µM (active). In addition, the GI50 in test [20] was 1.6 µM (inactive); in test [7] it was 0.0408 µM (active); in [8], 0.735 µM (active); in test [9], 1.4 µM (inactive); in [10] it was < 0.0192 µM (active); in test [11], 1.15 µM (inactive). Besides, the GI50 in [12] was 2.37 µM (inactive); in test [13] it was 0.286 µM (active); in [14], 1.54 µM (inactive); in test [15], 0.71 µM (active); in [16], 2.67 µM (inactive); in [17], 0.824 µM (active). The GI50 in test [18] is 0.0181 µM (active).
